According to article PMC8001558 (Viruses, 2021):
Where two headings read alike, the source gives them in different places.

What was measured:
GII.10 P-dimers = target: GII.10 P-dimers; parameters: method as in ref 28 = [28]; details: STD NMR titrations stopped at first step of the curve; cited from earlier work
GII.4 Saga (P-domain) = GII.4 Saga (P-domain) (Norovirus GII.4, UniProt B5BTR7); experiment: Re-evaluation of previously reported STD NMR titrations, one-site binding model; parameters: species or system human norovirus (HuNoV)
[1] = test system: GII.4 VA387 (N/N) P-dimers; format: binding; details: CSP NMR; buffer B: 75 mM sodium phosphate, 100mM NaCl (pH 7.3); 170 µM protein; 298 K; listed as 3′SL
MNV07 P-domain = format: binding
VA387 P-dimers = test system: VA387 P-dimers; parameters: method as in ref 31 = [31]; details: MS based data; cited from earlier work
[2] = target: GII.4 Saga (N/N) P-dimers (Norovirus GII.4, UniProt B5BTR7); experiment: biochemical; format: binding
[3] = target: P-domain of the VP1 capsid protein of human norovirus GII.4 strain MI001 (human norovirus GII.4 strain MI001)
MNV CW1 P-domain = MNV CW1 P-domain (Norovirus, UniProt Q80J94, K296E); experiment: CSP NMR binding experiment with MNV P-domain; parameters: species or system murine norovirus (MNV); details: MNV P-domains saturated with GCDCA
[4] = target: P-domain of the VP1 capsid protein of murine norovirus strain MNV07 (murine norovirus strain MNV07)
[5] = target: GII.4 MI001 (N/N) P-dimers (Norovirus Hu/GII.4/MI001/2011/USA, UniProt S5FWF8); experiment: biochemical; format: binding; details: CSP NMR titration; 75 mM sodium phosphate, 100 mM NaCl (pH 7.3); 220 µM protein
[6] = target: P-domain of the VP1 capsid protein of human norovirus GII.4 strain VA387 (human norovirus GII.4 strain VA387)
[7] = 25 mM Tris-d11 pH* 7.40, 300 mM NaCl, 298 K, refit of titration data of ref [2], read-out: KD in mM (reevaluated)

C[C@H](O)[C@@H](O)[C@@H](O)[C@H](O)C=O [L-fucose]
dissociation constants (GII.10 P-dimers): sub millimolar

CO[C@@H]1O[C@@H](C)[C@@H](O)[C@@H](O)[C@@H]1O [Fuc 8, methyl α-L-fucopyranoside]
Kd (GII.4 Saga (P-domain); 25 mM BisTris-d19 pH* 6.5, 300 mM NaCl, 298 K, refit of titration data of ref [2], read-out: KD in mM (reevaluated)): 15.1 ± 1.6 mM
Kd (GII.4 Saga (P-domain); 25 mM PBS pH* 5.50, 300 mM NaCl, 298 K, refit of titration data of ref [2], read-out: KD in mM (reevaluated)): 21.9 ± 2.6 mM
Kd (GII.4 Saga (P-domain); 25 mM PBS pH* 6.50, 300 mM NaCl, 298 K, refit of titration data of ref [2], read-out: KD in mM (reevaluated)): 18.4 ± 2.6 mM
Kd (GII.4 Saga (P-domain); 25 mM PBS pH* 7.40, 300 mM NaCl, 298 K, refit of titration data of ref [2] (Mallagaray et al., Angew Chem Int Ed 2015), read-out: KD in mM (reevaluated)): 15.6 ± 1.9 mM
Kd (GII.4 Saga (P-domain); 25 mM sodium acetate-d3, pH* 4.50, 300 mM NaCl, 298 K, refit of titration data of ref [2], read-out: KD in mM (reevaluated)): 24.5 ± 4.1 mM

CC(=O)N[C@H]1[C@H]([C@H](O)[C@H](O)CO)O[C@@](O[C@H]2[C@@H](O)[C@@H](CO)O[C@@H](O[C@H]3[C@H](O)[C@@H](O)[C@H](O)O[C@@H]3CO)[C@@H]2O)(C(=O)O)C[C@@H]1O [3′SL 6, 3′-sialyllactose]
binding (tested negative/positive) [1]: no binding
binding (tested negative/positive) (MNV07 P-domain; STD, buffer B (20 mM sodium acetate, 100 mM NaCl, pH 5.3), with GCDCA, no EDTA, no Ca2+, listed as 3′SL): no saturation transfer
binding to VA387 P-dimers (VA387 P-dimers): neither 3′-sialyllactose nor 6′-sialyllactose bind

CO[C@@H]1O[C@H](CO)[C@H](O)[C@H](O)[C@H]1O[C@@H]1O[C@@H](C)[C@@H](O)[C@@H](O)[C@@H]1O [H-Dis 12, blood group H-disaccharide]
Kd (GII.4 Saga (P-domain); [7]): 26.5 ± 2.7 mM

CC(CCC(=O)NCC(=O)O)C1CCC2C3C(O)CC4CC(O)CCC4(C)C3CCC12C (centres unmarked) [GCDCA, glycochenodeoxycholic acid, reference compound]
STD effects (saturation transfer to ligand) (MNV07 P-domain; 80 µM protein, 20 mM sodium acetate buffer (pH 5.3), 250 µM GCDCA, 2 mM 3′SL, 298 K, 600 MHz): show STD effects

CC(=O)N[C@H]1[C@@H](O[C@H]2[C@@H](O)[C@@H](CO)O[C@@H](O)[C@@H]2O[C@@H]2O[C@@H](C)[C@@H](O)[C@@H](O)[C@@H]2O)O[C@H](CO)[C@H](O)[C@@H]1O [A-Tri 2, blood group A trisaccharide]
Kd [2]: 4.3 ± 0.4 mM

P-domain of the VP1 capsid protein of human norovirus GII.4 strain MI001 (domain or fragment)
stoichiometry N [3]: 2

[Mn+2] [Mn^2+]
binding of bivalent metal ions (MNV CW1 P-domain): detected binding

P-domain of the VP1 capsid protein of murine norovirus strain MNV07 (domain or fragment)
stoichiometry N [4]: 2

C[C@@H]1O[C@@H](O[C@@H]2[C@@H](O[C@H]3O[C@H](CO)[C@H](O)[C@H](O)[C@H]3O)[C@@H](O)[C@@H](CO)O[C@@H]2N=[N+]=[N-])[C@@H](O)[C@H](O)[C@@H]1O [B-Tri 3, blood group B trisaccharide (azido group at the anomeric position)]
Kd [5]: 4.3 ± 0.4 mM

[Cl-].[Cl-].[Mg+2] [Mg^2+]
binding of bivalent metal ions (MNV CW1 P-domain): detected binding

CC(=O)N[C@H]1[C@H]([C@H](O)[C@H](O)CO)O[C@@](OC[C@H]2O[C@@H](O[C@H]3[C@H](O)[C@@H](O)[C@H](O)O[C@@H]3CO)[C@H](O)[C@@H](O)[C@H]2O)(C(=O)O)C[C@@H]1O [6′-sialyllactose, reference compound]
binding to VA387 P-dimers (VA387 P-dimers): neither 3′-sialyllactose nor 6′-sialyllactose bind

O=C(O)CC(O)(CC(=O)O)C(=O)O [Citrate, reference compound]
Kd (GII.4 Saga (P-domain); KD in mM (reevaluated)): 22.9 ± 2.7 mM
dissociation constants (GII.10 P-dimers): sub millimolar

C[C@@H]1O[C@@H](O[C@@H]2[C@@H](O[C@H]3O[C@H](CO)[C@H](O)[C@H](O)[C@H]3O)[C@@H](O)[C@@H](CO)O[C@@H]2N=[N+]=[N-])[C@@H](O)[C@H](O)[C@@H]1O (hydrate or solvate) [B-Tri 3, blood group B trisaccharide (azido group at the anomeric position)]
melting point: 204 to 206 °C

P-domain of the VP1 capsid protein of human norovirus GII.4 strain VA387 (domain or fragment)
stoichiometry N [6]: 2

CO[C@@H]1O[C@H](CO)[C@H](O)[C@H](O[C@H]2O[C@H](CO)[C@H](O)[C@H](O)[C@H]2O)[C@H]1O[C@@H]1O[C@@H](C)[C@@H](O)[C@@H](O)[C@@H]1O [b -Methyl glycoside of B-trisaccharide, reference compound]
Kd (GII.4 Saga (P-domain); [7]): 5.2 ± 0.5 mM
